Test results published in patent publication US20240148821A1, “PHARMACEUTICAL USE OF CYCLIC PEPTIDE COMPOUND” (CHUGAI SEIYAKU KABUSHIKI KAISHA, priority 2021, published 2024).
Numbered stars: 1 amine (or outer) side, 2 acyl side, 3 side chain; on linkers, the order of the positions; unused ones are H or OH. Bridge positions count the residues as written; N and C are the ends. Square brackets hold non-standard residues; d marks the D form. Peptide text beside a SMILES is read from it. * marks the point of attachment. hPhe(3-Cl-4-CF3) = N[C@@H](CCc1ccc(C(F)(F)F)c(Cl)c1)C(=O)O; X8 = CC(C)Oc1cc(CC[C@H](N[*:1])C(=O)[*:2])cc(Cl)c1Cl; NMePhe(4-CF3) = CN[C@@H](Cc1ccc(C(F)(F)F)cc1)C(=O)O; NMePhe(4-Cl) = CN[C@@H](Cc1ccc(Cl)cc1)C(=O)O; NEtPhe(2-Cl) = CCN[C@@H](Cc1ccccc1Cl)C(=O)O; NMePhe(4-Me) = CN[C@@H](Cc1ccc(C)cc1)C(=O)O; X69 = CN(C)C(=O)COCCN(CC(=O)[*:2])[*:1]; NMeGly(cPent) = CN[C@H](C(=O)O)C1CCCC1; NMeGly(cBu) = CN[C@H](C(=O)O)C1CCC1; NMeCha = CN[C@@H](CC1CCCCC1)C(=O)O; NMeChg = CN[C@H](C(=O)O)C1CCCCC1; NMeI = CC[C@H](C)[C@H](NC)C(=O)O; NMeD = CN[C@@H](CC(=O)O)C(=O)O; NMeL = CN[C@@H](CC(C)C)C(=O)O; NMeV = CN[C@H](C(=O)O)C(C)C; d(β3hA) = C[C@@H](N)CC(=O)O; NMeA = CN[C@@H](C)C(=O)O; Piperidide = C1CCN(*)CC1; Pyrrolidide = C1CCN(*)C1; Ac5c = NC1(C(=O)O)CCCC1; Aze = O=C(O)[C@@H]1CCN1; Aib = CC(C)(N)C(=O)O; NEtG = CCNCC(=O)O; Sar = CNCC(=O)O

biological target: protein-protein interaction between Kras and SOS1 (biotin-tagged human Kras loaded with GDP, His-tagged human SOS1) (Homo sapiens (Human), UniProt P01116, G12D); experiment: Protein-protein interaction inhibition between Kras and SOS1 (KrasG12D-SOS PPI) using AlphaScreen; assay type: biochemical; conditions: AlphaScreen; biotin-tagged human Kras loaded with GDP, His-tagged human SOS1; read-out: KRAS G12D-SOS PPI IC50;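 also: kras produced in E. coli, Ni-coupled donor beads and streptavidin acceptor beads, excitation 680 nm with emission detected at 520–620 nm via singlet oxygen transfer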

SMILES | IC50 [nM]
CC[C@H](C)[C@@H]1NC(=O)[C@H](CC(C)C)N(C)C(=O)C[C@@H](C(=O)N2CCCCC2)N(C)C(=O)[C@H](C2CCCCC2)N(C)C(=O)C2(CCCC2)NC(=O)CN(CCOCC(=O)N(C)C)C(=O)[C@H](CCc2ccc(C(F)(F)F)c(Cl)c2)NC(=O)CN(C)C(=O)[C@H](CC2CCCCC2)N(C)C(=O)CN(C)C(=O)CN(C)C1=O [Compound 2038, 2-[2-[(11S,17S,26S,29S,33S,36S)-11-[2-[3-chloro-4-(Trifluoromethyl)phenyl]ethyl]-36-cyclohexyl-17-(cyclohexylmethyl)-29-isobutyl-15,18,21,24,30,34,37-heptamethyl-26-[(1S)-1-methylpropyl]-7,10,13,16,19,22,25,28,31,35,38-undecaoxo-33-(piperidine-1-carbonyl)-6,9,12,15,18,21,24,27,30,34,37-undecazaspiro[4.33]octatriacontan-9-yl]ethoxy]-N,N-dimethyl-acetamide] ([NMeL]I[Sar][Sar][NMeCha][Sar][hPhe(3-Cl-4-CF3)][X69][Ac5c][NMeChg][NMeD]-Piperidide; lactam N-11) | 8.3
CC[C@H](C)[C@@H]1NC(=O)[C@H](CC(C)C)N(C)C(=O)C[C@@H](C(=O)N(C)C)N(C)C(=O)[C@H]([C@@H](C)CC)N(C)C(=O)C2(CCCC2)NC(=O)[C@H](Cc2ccccc2Cl)N(CC)C(=O)[C@H](CCc2ccc(C(F)(F)F)c(Cl)c2)NC(=O)CN(C)C(=O)[C@H](Cc2ccc(C)cc2)N(C)C(=O)[C@@H]2CCN2C(=O)[C@H](C)N(C)C1=O [Compound 2165] ([NMeL]I[NMeA][Aze][NMePhe(4-Me)][Sar][hPhe(3-Cl-4-CF3)][NEtPhe(2-Cl)][Ac5c][NMeI][NMeD]-NMe2; lactam N-11) | 220
CC[C@H](C)[C@@H]1NC(=O)[C@H](CC(C)C)N(C)C(=O)C[C@@H](C)NC(=O)[C@H](C(C)C)N(C)C(=O)C2(CCCC2)NC(=O)[C@@H]2CCCN2C(=O)[C@H](CCc2ccc(C(F)(F)F)c(Cl)c2)NC(=O)CN(C)C(=O)[C@H](CC2CCCCC2)N(C)C(=O)[C@@H]2CCN2C(=O)[C@H](CC(C)C)N(C)C1=O [Compound 1619] (cyclo([Ac5c][NMeV][d(β3hA)][NMeL]I[NMeL][Aze][NMeCha][Sar][hPhe(3-Cl-4-CF3)]P)) | 360
CC[C@H](C)[C@@H]1NC(=O)[C@H](CC(C)C)N(C)C(=O)C[C@@H](C(=O)N2CCCCC2)N(C)C(=O)[C@H](C(C)C)N(C)C(=O)C2(CCCC2)NC(=O)[C@@H]2CCCN2C(=O)[C@H](CCc2ccc(C(F)(F)F)c(Cl)c2)NC(=O)CN(C)C(=O)[C@H](CC2CCCCC2)N(C)C(=O)[C@@H]2CCN2C(=O)[C@H](C2CCC2)N(C)C1=O [Compound 1554] ([NMeL]I[NMeGly(cBu)][Aze][NMeCha][Sar][hPhe(3-Cl-4-CF3)]P[Ac5c][NMeV][NMeD]-Piperidide; lactam N-11) | 200
CC[C@H](C)[C@@H]1NC(=O)[C@H](CC(C)C)N(C)C(=O)C[C@@H](C(=O)N2CCCCC2)NC(=O)[C@H](C(C)C)N(C)C(=O)C2(CCCC2)NC(=O)[C@@H]2CCCN2C(=O)[C@H](CCc2ccc(C(F)(F)F)c(Cl)c2)NC(=O)CN(C)C(=O)[C@H](CC2CCCCC2)N(C)C(=O)[C@@H]2CCN2C(=O)[C@H](C)N(C)C1=O [Compound 1353] ([NMeL]I[NMeA][Aze][NMeCha][Sar][hPhe(3-Cl-4-CF3)]P[Ac5c][NMeV]D-Piperidide; lactam N-11) | 11
CC[C@H](C)[C@@H]1NC(=O)[C@H](CC(C)C)N(C)C(=O)C[C@@H](C(=O)N2CCCC2)N(C)C(=O)[C@H]([C@@H](C)CC)N(C)C(=O)C2(CCCC2)NC(=O)[C@@H]2CCCN2C(=O)[C@H](CCc2ccc(C(F)(F)F)c(Cl)c2)NC(=O)CN(CC)C(=O)[C@H](Cc2ccc(C(F)(F)F)cc2)N(C)C(=O)[C@@H]2CCN2C(=O)[C@H](C)N(C)C1=O [Compound 1159] ([NMeL]I[NMeA][Aze][NMePhe(4-CF3)][NEtG][hPhe(3-Cl-4-CF3)]P[Ac5c][NMeI][NMeD]-Pyrrolidide; lactam N-11) | 2.8
CC[C@H](C)[C@@H]1NC(=O)[C@H](C)N(C)C(=O)C[C@@H](C)NC(=O)[C@H](C2CCCC2)N(C)C(=O)C2(CCCC2)NC(=O)[C@@H]2CCCN2C(=O)[C@H](CCc2ccc(C(F)(F)F)c(Cl)c2)NC(=O)[C@H]2CCCN2C(=O)[C@H](Cc2ccc(C)cc2)N(C)C(=O)CN(C)C(=O)CN(C)C1=O [Compound 1525] (cyclo([Ac5c][NMeGly(cPent)][d(β3hA)][NMeA]I[Sar][Sar][NMePhe(4-Me)][dP][hPhe(3-Cl-4-CF3)]P)) | 100
CC[C@H](C)[C@@H]1NC(=O)[C@H](C(C)C)N(C)C(=O)C[C@@H](C)NC(=O)[C@H](CC(C)C)N(C)C(=O)C(C)(C)NC(=O)[C@H](CC(C)C)N(C)C(=O)[C@H](CCc2ccc(C(F)(F)F)c(Cl)c2)NC(=O)CN(C)C(=O)[C@H](Cc2ccc(Cl)cc2)N(C)C(=O)CN(C)C(=O)CN(C)C1=O [Compound 740] (cyclo([Aib][NMeL][d(β3hA)][NMeV]I[Sar][Sar][NMePhe(4-Cl)][Sar][hPhe(3-Cl-4-CF3)][NMeL])) | 11
CC[C@H](C)[C@@H]1NC(=O)[C@H](C)N(C)C(=O)C[C@@H](C(=O)N2CCCCC2)N(C)C(=O)[C@H](C2CCCCC2)N(C)C(=O)C2(CCCC2)NC(=O)[C@@H]2CCCN2C(=O)[C@H](CCc2cc(Cl)c(Cl)c(OC(C)C)c2)NC(=O)CN(C)C(=O)[C@H](CC2CCCCC2)N(C)C(=O)CN(C)C(=O)CN(C)C1=O [Compound 2062] ([NMeA]I[Sar][Sar][NMeCha][Sar][X8]P[Ac5c][NMeChg][NMeD]-Piperidide; lactam N-11) | 6.9
